Settings: not told
Excerpt: In each of the determinations mentioned above, samples of the liquid contained in the receiver compartment were taken after determined durations and, by assaying the antifactor Xa activity of the said samples, the quantity of pentasaccharide which has passed into the receiver compartment through the membrane was obtained.

Permeability (to pentasaccharide), passive: ~ 0 μg/cm^2
Substance: polyamide-11

— patent publication US6064908A, “Device for ionophoresis comprising at least a membrane electrode assembly, for the transcutaneous administration of active principles to a subject” (Elf Aquitaine, priority 1996, dated 2000)
